Measured values: ChEMBL document CHEMBL4622854, “Synthetic bioactive olivetol-related amides: The influence of the phenolic group in cannabinoid receptor activity” (Bioorg Med Chem, 2020)
Active and inactive are the calls of the source. No cut-off for these calls is given here.

How the values were obtained:
[1] = target: T1, Cannabinoid receptor 1 (Homo sapiens, UniProt P21554); test: Displacement of [3H]-CP55940 from human recombinant CB1 receptor expressed in HEK cell membrane; type: cell membranes
[2] = target: T2, Cannabinoid receptor 2 (Homo sapiens, UniProt P34972); test: Displacement of [3H]-CP55940 from human recombinant CB2 receptor expressed in HEK cell membrane; type: cell membranes
[3] = species on record: Homo sapiens; test: Selectivity ratio of Ki for displacement of [3H]-CP55940 from human recombinant CB1 receptor expressed in HEK293 cell membrane to Ki for displacement of [3H]-CP55940 from human recombinant CB2 receptor expressed in HEK293 cell membrane
[4] = target: T1, Cannabinoid receptor 1; test: Agonist activity at human CB1 receptor expressed in CHO cell membrane assessed as stimulation of [35S]-GTPgammaS binding incubated for 1 hr by liquid scintillation counting assay; type: functional, cell membranes
[5] = target: T1, Cannabinoid receptor 1; test: Agonist activity at human CB1 receptor expressed in CHO cell membrane assessed as stimulation of [35S]-GTPgammaS binding incubated for 1 hr by liquid scintillation counting assay relative to control
[6] = target: T2, Cannabinoid receptor 2; test: Agonist activity at human CB2 receptor at 1 nM to 1 uM expressed in CHO cell membrane assessed as stimulation of [35S]-GTPgammaS binding incubated for 1 hr by liquid scintillation counting assay
[7] = target: T2, Cannabinoid receptor 2; test: Agonist activity at human CB2 receptor expressed in CHO cell membrane assessed as inhibition of [35S]-GTPgammaS binding incubated for 1 hr by liquid scintillation counting assay; type: functional, cell membranes
[8] = target: T2, Cannabinoid receptor 2; test: Agonist activity at human CB2 receptor at 10 uM expressed in CHO cell membrane assessed as stimulation of [35S]-GTPgammaS binding incubated for 1 hr by liquid scintillation counting assay relative to control
[9] = target: T2, Cannabinoid receptor 2; test: Antagonist activity at human CB2 receptor expressed in CHO cell membrane assessed as inhibition of CP55940-induced [35S]-GTPgammaS binding incubated for 1 hr by liquid scintillation counting
[10] = system: Mus musculus; test: Antinociceptive activity in formalin-induced nociception pain CD-1 mouse model assessed as reduction in pain related behavior in late phase at 6 mg/kg, ip pretreated with compound 10 mins prior to formalin induction measured after 20 to 60 mins by formalin test; type: functional, organism-based
[11] = system: Mus musculus; test: Antinociceptive activity in formalin-induced nociception pain CD-1 mouse model assessed as reduction in pain related behavior in late phase at 1 to 3 mg/kg, ip pretreated with compound 10 mins prior to formalin induction measured after 20 to 60 mins by formalin test; type: functional, organism-based
[12] = species on record: Mus musculus; test: Antinociceptive activity in formalin-induced nociception pain CD-1 mouse model assessed as reduction in pain related behavior pretreated with compound 10 mins prior to formalin induction co-treated with AM251 measured until 60 mins by formalin test; type: functional, organism-based
[13] = species on record: Mus musculus; test: Antinociceptive activity in formalin-induced nociception pain CD-1 mouse model assessed as reduction in pain related behavior pretreated with compound 10 mins prior to formalin induction co-treated with AM630 measured until 60 mins by formalin test; type: functional, organism-based
[14] = target: T2, Cannabinoid receptor 2; test: Agonist activity at human CB2 receptor expressed in CHO cell membrane assessed as stimulation of [35S]-GTPgammaS binding incubated for 1 hr by liquid scintillation counting assay relative to control
[15] = system: HepG2; test: Antiproliferation activity against human HepG2 cells assessed as reduction in cell viability at 1 uM incubated for 24 to 72 hrs by MTT assay; type: functional, cell-based
[16] = target: T3, Transient receptor potential cation channel subfamily A member 1 (Rattus norvegicus, UniProt Q6RI86); test: Antagonist activity at rat recombinant TRPA1 expressed in HEK293 cells assessed as AITC-induced increase of calcium influx preincubated for 5 mins by Fluo-4AM dye based fluorescence assay; type: cell-based
[17] = system: Mus musculus; test: Antinociceptive activity in formalin-induced nociception pain CD-1 mouse model assessed as reduction in pain related behavior in late phase through ip pretreated with compound 10 mins prior to formalin induction measured after 20 to 60 mins by formalin test; type: functional, organism-based
[18] = system: Mus musculus; test: Antinociceptive activity in formalin-induced nociception pain CD-1 mouse model assessed as reduction in pain related behavior in first phase at 4 mg/kg, ip pretreated with compound 10 mins prior to formalin induction measured from 0 to 10 mins by formalin test; type: functional, organism-based
[19] = target: T4, Transient receptor potential cation channel subfamily V member 1 (Homo sapiens, UniProt Q8NER1); test: Antagonist activity at human TRPV1 expressed in HEK293 cells assessed as capsaicin-induced increase of calcium influx preincubated for 5 mins by Fluo-4AM dye based fluorescence assay; type: cell-based
[20] = target: T4, Transient receptor potential cation channel subfamily V member 1; test: Antagonist activity at human TRPV1 expressed in HEK293 cells assessed as ionomycin-induced increase of calcium influx at 4 uM preincubated for 5 mins by Fluo-4AM dye based fluorescence assay relative to control; type: cell-based
[21] = target: Transient receptor potential cation channel subfamily A member 1 (Rattus norvegicus) (UniProt Q6RI86); test: Antagonist activity at rat recombinant TRPA1 expressed in HEK293 cells assessed as AITC-induced increase of calcium influx at 100 uM preincubated for 5 mins by Fluo-4AM dye based fluorescence assay relative to control; type: cell-based
[22] = target: T3, Transient receptor potential cation channel subfamily A member 1; test: Activation of rat recombinant TRPA1 expressed in HEK293 cells assessed as calcium influx preincubated for 5 mins by Fluo-4AM dye based fluorescence assay; type: cell-based
[23] = target: T4, Transient receptor potential cation channel subfamily V member 1; test: Activation of human TRPV1 expressed in HEK293 cells assessed as calcium influx preincubated for 5 mins by Fluo-4AM dye based fluorescence assay; type: cell-based

T2 sequence (P34972 whole entry): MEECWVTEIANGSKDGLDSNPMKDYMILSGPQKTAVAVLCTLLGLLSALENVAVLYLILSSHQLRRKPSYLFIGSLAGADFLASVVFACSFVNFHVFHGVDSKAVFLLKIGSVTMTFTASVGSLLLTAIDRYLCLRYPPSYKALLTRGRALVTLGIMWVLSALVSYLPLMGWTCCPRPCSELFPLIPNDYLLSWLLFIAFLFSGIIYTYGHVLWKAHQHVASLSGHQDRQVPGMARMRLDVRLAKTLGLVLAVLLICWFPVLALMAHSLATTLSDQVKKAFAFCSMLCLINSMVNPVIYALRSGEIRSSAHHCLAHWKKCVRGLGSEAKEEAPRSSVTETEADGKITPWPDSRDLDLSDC
T1 sequence (P21554 whole entry): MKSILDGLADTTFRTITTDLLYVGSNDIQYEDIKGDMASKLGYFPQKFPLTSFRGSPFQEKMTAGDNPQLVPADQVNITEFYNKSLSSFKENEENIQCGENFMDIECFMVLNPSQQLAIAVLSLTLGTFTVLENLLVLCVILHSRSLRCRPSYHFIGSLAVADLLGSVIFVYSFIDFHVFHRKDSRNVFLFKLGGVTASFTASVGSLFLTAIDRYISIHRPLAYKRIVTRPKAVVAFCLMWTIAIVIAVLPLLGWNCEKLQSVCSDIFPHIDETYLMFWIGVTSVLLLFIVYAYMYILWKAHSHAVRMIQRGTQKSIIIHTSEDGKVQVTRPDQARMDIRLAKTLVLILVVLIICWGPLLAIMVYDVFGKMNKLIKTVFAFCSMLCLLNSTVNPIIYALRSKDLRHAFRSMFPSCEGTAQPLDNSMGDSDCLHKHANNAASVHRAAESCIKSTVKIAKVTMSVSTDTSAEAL
T4 sequence (Q8NER1 whole entry): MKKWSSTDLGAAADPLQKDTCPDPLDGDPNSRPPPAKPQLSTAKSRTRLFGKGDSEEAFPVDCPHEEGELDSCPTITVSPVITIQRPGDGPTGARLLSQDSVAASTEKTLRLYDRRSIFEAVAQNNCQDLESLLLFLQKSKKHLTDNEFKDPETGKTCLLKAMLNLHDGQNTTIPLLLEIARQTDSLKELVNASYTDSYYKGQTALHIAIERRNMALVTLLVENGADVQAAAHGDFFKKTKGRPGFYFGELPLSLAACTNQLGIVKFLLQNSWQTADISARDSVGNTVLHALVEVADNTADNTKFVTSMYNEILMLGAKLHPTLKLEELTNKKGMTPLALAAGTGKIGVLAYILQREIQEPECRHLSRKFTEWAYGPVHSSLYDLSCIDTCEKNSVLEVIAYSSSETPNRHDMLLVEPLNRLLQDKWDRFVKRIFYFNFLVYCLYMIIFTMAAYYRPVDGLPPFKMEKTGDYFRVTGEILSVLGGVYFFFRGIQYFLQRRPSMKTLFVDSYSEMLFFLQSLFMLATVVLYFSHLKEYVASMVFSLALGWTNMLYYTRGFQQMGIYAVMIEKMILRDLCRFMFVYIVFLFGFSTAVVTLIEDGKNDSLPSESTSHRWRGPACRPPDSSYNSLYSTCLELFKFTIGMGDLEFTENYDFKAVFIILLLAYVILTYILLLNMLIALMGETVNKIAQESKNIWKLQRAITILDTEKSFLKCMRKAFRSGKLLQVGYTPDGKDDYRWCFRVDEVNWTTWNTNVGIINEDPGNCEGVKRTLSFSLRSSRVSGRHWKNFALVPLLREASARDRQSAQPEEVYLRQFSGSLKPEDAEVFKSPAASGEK
T3 sequence (Q6RI86 whole entry): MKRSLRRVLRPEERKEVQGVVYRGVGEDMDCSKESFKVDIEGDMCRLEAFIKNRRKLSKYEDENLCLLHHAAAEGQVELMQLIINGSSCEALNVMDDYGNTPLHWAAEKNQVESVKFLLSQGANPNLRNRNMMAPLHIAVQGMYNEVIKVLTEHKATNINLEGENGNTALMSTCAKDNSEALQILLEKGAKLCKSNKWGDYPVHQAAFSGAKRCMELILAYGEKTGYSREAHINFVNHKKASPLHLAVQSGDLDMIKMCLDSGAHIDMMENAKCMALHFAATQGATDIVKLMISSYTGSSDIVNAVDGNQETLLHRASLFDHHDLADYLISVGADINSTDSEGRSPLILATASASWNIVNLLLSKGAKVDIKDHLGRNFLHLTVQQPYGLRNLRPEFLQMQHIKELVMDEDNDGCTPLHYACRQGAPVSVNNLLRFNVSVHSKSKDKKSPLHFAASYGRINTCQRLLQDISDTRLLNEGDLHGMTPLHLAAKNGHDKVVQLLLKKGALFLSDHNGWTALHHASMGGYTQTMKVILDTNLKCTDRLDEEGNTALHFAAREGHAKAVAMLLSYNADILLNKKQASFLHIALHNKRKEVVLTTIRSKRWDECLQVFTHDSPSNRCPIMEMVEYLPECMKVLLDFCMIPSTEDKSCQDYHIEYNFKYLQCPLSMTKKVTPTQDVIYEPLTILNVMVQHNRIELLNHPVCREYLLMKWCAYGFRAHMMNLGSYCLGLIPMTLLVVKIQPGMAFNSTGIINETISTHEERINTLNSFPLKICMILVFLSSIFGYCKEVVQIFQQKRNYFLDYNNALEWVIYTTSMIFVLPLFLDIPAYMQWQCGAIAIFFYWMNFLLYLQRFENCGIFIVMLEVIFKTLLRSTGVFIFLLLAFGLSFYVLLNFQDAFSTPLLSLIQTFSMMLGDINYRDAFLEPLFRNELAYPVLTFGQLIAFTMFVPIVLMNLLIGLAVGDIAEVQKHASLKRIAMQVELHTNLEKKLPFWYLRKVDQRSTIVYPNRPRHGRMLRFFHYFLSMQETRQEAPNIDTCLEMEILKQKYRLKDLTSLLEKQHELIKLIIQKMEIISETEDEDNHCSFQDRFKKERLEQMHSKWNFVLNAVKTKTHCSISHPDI
Transient receptor potential cation channel subfamily A member 1 (Rattus norvegicus), sequence (Q6RI86 whole entry): as above

## CCCCCc1cc(OC)cc(OCCCCCCCCCCC(=O)NCC(F)(F)F)c1
[1]
  Ki: 75.5 nM
[2]
  Ki: 22.9 nM
[3]
  Selectivity ratio: 3.3

## CCCCCCc1ccc(OC)cc1OCCCCCCCCCCC(=O)NCC1CC1
[1]
  Ki: 693 nM
[2]
  Ki: 62.6 nM
[3]
  Selectivity ratio: 11.1

## CCCCCc1cc(OCCCCCCCCCCC(=O)NC2CC2)cc(OC(C)C)c1
[1]
  Ki: 20.7 nM
[2]
  Ki: 2.7 nM
[3]
  Selectivity ratio: 7.7

## CCCCCCC(C)(C)c1cc(OC)cc(OCCCCCCCCCCC(=O)NCCO)c1
[1]
  Ki: 3160 nM
[2]
  Ki: 104 nM
[3]
  Selectivity ratio: 30

## CCCCCc1cc(OC)cc(OCCCCCCCC(=O)NCCO)c1
[1]
  Ki: 76.1 nM
[2]
  Ki: 41.9 nM
[3]
  Selectivity ratio: 1.8

## CCCCCc1cc(OC)cc(OCCCCCCCCCCC(=O)Nc2ccccc2)c1
[1]
  Ki: 845 nM
[2]
  Ki: 309 nM
[3]
  Selectivity ratio: 2.7

## CCCCCc1cc(OCCCC)cc(OCCCCCCCCCCC(=O)NC2CC2)c1
[1]
  Ki: 11.3 nM
[2]
  Ki: 21.5 nM
[3]
  Selectivity ratio: 0.5

## CCCCCc1cc(O)cc(OCCCCCCCCCCC(=O)NC2CC2)c1
[3]
  Selectivity ratio: 0.4

## CCCCCc1cc(OC)cc(OCCCCCCCCCCC(=O)NC2CC2)c1
[1]
  Ki: 3.5 nM
[2]
  Ki: 1.2 nM
[3]
  Selectivity ratio: 2.9
[4]
  EC50: 6.21 nM
[5]
  Emax: 62.7%
[6]
  Activity: Active
[7]
  EC50: 398 nM
[8]
  Emax: -17.8%
[9]
  Kb: 37.8 nM
[10]
  Activity: Active
[11]
  Activity: inactive
[12]
  Activity: inactive
[13]
  Activity: inactive

## CCCCCCC(C)(C)c1cc(OC)cc(OCCCCCCCCCCC(=O)NCC2CC2)c1
[1]
  Ki: 3190 nM
[2]
  Ki: 322 nM
[3]
  Selectivity ratio: 9.9

## CCCCCc1cc(OC)cc(OCCCCCCCCCCC(=O)NCC2CC2)c1
[1]
  Ki: 297 nM
[2]
  Ki: 10.3 nM
[3]
  Selectivity ratio: 28.9

## CCCCCCC(C)(C)c1cc(OC)cc(OCCCCCCCCCCC(=O)NC2CC2)c1
[1]
  Ki: 280 nM
[2]
  Ki: 26.1 nM
[3]
  Selectivity ratio: 10.7

## CCCCCCC(C)(C)c1cc(OC)cc(OCCCCCCCCCCC(=O)NC(CO)CO)c1
[1]
  Ki: > 10000 nM
[2]
  Ki: 1370 nM
[3]
  Selectivity ratio: > 7.3

## CCCCCc1cccc(OCCCCCCCCCCC(=O)NC2CC2)c1
[1]
  Ki: 5.9 nM
[2]
  Ki: 3.5 nM
[3]
  Selectivity ratio: 1.7
[4]
  EC50: 31 nM
[5]
  Emax: 29.5%
[7]
  EC50: 1.28 nM
[9]
  Kb: 78.2 nM
[14]
  Emax: -13%

## CCCCCCc1ccc(OCCCCCCCCCCC(=O)NCC2CC2)cc1OC
[1]
  Ki: 3250 nM
[2]
  Ki: 48.8 nM
[3]
  Selectivity ratio: 66.6
[6]
  Activity: Active
[7]
  EC50: 174 nM
[9]
  Kb: 30.6 nM
[14]
  Emax: -18.3%

## CCCCCc1cc(OCC)cc(OCCCCCCCCCCC(=O)NC2CC2)c1
[1]
  Ki: 11.7 nM
[2]
  Ki: 6.7 nM
[3]
  Selectivity ratio: 1.8

## C=CCNC(=O)CCCCCCCOc1cc(OC)cc(C(C)(C)CCCCCC)c1
[1]
  Ki: 7.6 nM
[2]
  Ki: 31.2 nM
[3]
  Selectivity ratio: 0.2

## CCCCCCC(C)(C)c1cc(OC)cc(OCCCCCCCC(=O)NC2CC2)c1
[15]
  Activity: inactive
[16]
  IC50: > 100000 nM
[1]
  Ki: 1.1 nM
[2]
  Ki: 4.2 nM
[3]
  Selectivity ratio: 0.3
[4]
  EC50: 15.1 nM
[5]
  Emax: 52.5%
[7]
  EC50: 1.16 nM
[17]
  Activity: Dose-dependent effect
[18]
  Activity: Active
[19]
  IC50: 800 nM
[20]
  Efficacy: 29.4%
[21]
  Efficacy: 17.2%
[14]
  Emax: 28.3%
[12]
  Activity: inactive
[13]
  Activity: Active
[22]
  EC50: 11100 nM
[23]
  EC50: 120 nM

## CCCCCCC(C)(C)c1cc(OC)cc(OCCCCCCCC(=O)NCCO)c1
[1]
  Ki: 89.1 nM
[2]
  Ki: 129 nM
[3]
  Selectivity ratio: 0.7

## CCCCCc1cc(OC)cc(OCCCCCCCCCCC(=O)NC(CO)CO)c1
[1]
  Ki: 350 nM
[2]
  Ki: 598 nM
[3]
  Selectivity ratio: 0.6

## CCCCCc1cc(OC)cc(OCCCCCCCCCCC(=O)NCCO)c1
[1]
  Ki: 87.6 nM
[2]
  Ki: 33.2 nM
[3]
  Selectivity ratio: 2.6

## C=CCNC(=O)CCCCCCCCCCOc1cc(CCCCC)cc(OC)c1
[1]
  Ki: 23.7 nM
[2]
  Ki: 6.8 nM
[3]
  Selectivity ratio: 3.5

## CCCCCCC(C)(C)c1cc(OC)cc(OCCCCCCCC(=O)NCC(F)(F)F)c1
[1]
  Ki: 53.5 nM
[2]
  Ki: 92.8 nM
[3]
  Selectivity ratio: 0.6

## C=CCOc1cc(CCCCC)cc(OCCCCCCCCCCC(=O)NC2CC2)c1
[1]
  Ki: 13.6 nM
[2]
  Ki: 4.7 nM
[3]
  Selectivity ratio: 2.9
